Results from PubChem BioAssay AID434951 (Broad Institute, 2010).
pEC50: −log10 of the molar value. The source made the active and inactive calls.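 Rule for the calls: active = a fitted half-maximal concentration EC50 for the rise in nuclear signal no higher than ten times the top dose tested; inconclusive = flat fit with activity between 30% and 70%, or unusable fit; inactive = EC50 beyond ten times the top dose.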

Molecular target: Hypoxia-inducible factor 1-alpha (Homo sapiens) (UniProt Q16665)
Test: activators of HIF1alpha nuclear accumulation, confirmation, imaging, fluorescence, U2OS GFP-HIF1alpha (AID 434951)
Conditions: U2OS GFP-HIF1alpha nuclear intensity, high-content imaging

Sequence of Hypoxia-inducible factor 1-alpha (Homo sapiens) (Q16665 whole entry, looked up): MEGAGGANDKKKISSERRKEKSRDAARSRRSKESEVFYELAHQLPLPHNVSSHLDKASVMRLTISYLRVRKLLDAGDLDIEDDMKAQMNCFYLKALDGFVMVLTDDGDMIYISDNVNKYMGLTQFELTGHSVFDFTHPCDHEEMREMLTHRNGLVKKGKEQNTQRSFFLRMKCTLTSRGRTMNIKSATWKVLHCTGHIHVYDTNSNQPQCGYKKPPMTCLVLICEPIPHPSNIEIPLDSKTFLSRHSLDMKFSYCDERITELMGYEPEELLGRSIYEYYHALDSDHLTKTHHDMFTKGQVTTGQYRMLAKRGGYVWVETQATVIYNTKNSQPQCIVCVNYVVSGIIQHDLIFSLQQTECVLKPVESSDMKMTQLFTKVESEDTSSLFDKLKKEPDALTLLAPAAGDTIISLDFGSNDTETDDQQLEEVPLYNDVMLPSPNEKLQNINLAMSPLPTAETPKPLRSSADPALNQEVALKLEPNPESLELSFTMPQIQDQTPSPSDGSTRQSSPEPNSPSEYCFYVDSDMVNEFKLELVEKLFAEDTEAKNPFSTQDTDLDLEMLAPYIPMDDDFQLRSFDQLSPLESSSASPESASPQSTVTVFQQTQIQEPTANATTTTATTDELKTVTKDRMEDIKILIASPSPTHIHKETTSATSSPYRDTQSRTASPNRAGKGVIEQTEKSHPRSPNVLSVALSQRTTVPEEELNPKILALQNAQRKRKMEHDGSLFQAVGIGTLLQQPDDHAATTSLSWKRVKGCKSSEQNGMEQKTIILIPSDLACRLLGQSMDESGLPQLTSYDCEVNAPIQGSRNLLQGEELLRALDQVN

pEC50	EC50	SMILES
5.17		Cc1ccc(/C=N/NC(=O)c2c(-c3ccccc3)noc2C)c(O)c1
	> 35 µM (inactive)	O=C(Nc1cccc(Cl)c1)Nc1cccc(C(=O)O)c1
	> 35 µM (inactive)	N#C/C(=C(/O)c1ccc(F)cc1)c1nc2ccccc2s1
5.15		O=C(N/N=C/c1c(O)ccc2ccccc12)c1[nH]ncc1Br
4.59		COc1ccccc1NC(c1cccnc1)c1ccc2cccnc2c1O (stereo not given)
	> 35 µM (inactive)	O=C(O)c1cccc(-n2cccc2/C=C2/SC(=O)N(CC(=O)N3CCCC3)C2=O)c1
	> 35 µM (inactive)	CCOc1ccc(NC(=O)COc2ccccc2)c([N+](=O)[O-])c1
	> 35 µM (inactive)	COC(=O)c1ccc(C(C(=O)NCc2ccccc2)N(Cc2ccco2)C(=O)c2cnccn2)cc1 (stereo not given)
5.06		CN1CCN(Cc2nc3ccccc3c(=O)n2Cc2nc(-c3ccccc3F)cs2)CC1
4.93		Cc1occc1C(=O)N/N=C/c1c(O)ccc2ccccc12
	> 35 µM (inactive)	O=C(NC(=S)Nc1ccccn1)c1cc(-c2ccccc2)nc2ccccc12
	> 35 µM (inactive)	CC(=O)c1ccc(C(=O)N2CCCC(Nc3ccc(C(C)C)cc3)C2)s1 (stereo not given)
	> 35 µM (inactive)	COc1cc2c(cc1OC)C(c1ccccc1)N(S(C)(=O)=O)CC2 (stereo not given)
	> 35 µM (inactive)	CCN(CC)S(=O)(=O)c1ccc(N2CCOCC2)c(NC(=O)c2cccc3ccccc23)c1
	> 35 µM (inactive)	Cc1ccc(S(=O)(=O)N2CCOC23CCN(C(=O)c2cc(Cl)ccc2Cl)CC3)cc1
	> 35 µM (inactive)	CC1(C)CC(=O)C(CC2C(=O)CC(C)(C)CC2=O)C(=O)C1
	> 35 µM (inactive)	COc1ccccc1CCNS(=O)(=O)c1cc2c3c(c1)C(C)C(=O)N3CCC2 (stereo not given)
	> 35 µM (inactive)	CCOC(=O)c1c(S(=O)(=O)N2CCC(C)CC2)c(C)n(C)c1C
	> 35 µM (inactive)	CCOC(=O)CN(C(=O)COc1nc(C)cc(C)c1C#N)c1cccc(Cl)c1
6.17		O=C(N/N=C/c1c(O)ccc2ccccc12)c1cccnc1
4.86		COc1cc(C(=O)Oc2ccccc2/C=N/NC(=O)c2ccc(C)cc2)cc(OC)c1OC
4.45		O=C(N/N=C/c1cc(Br)ccc1O)C(=O)Nc1ccccc1OC(F)(F)C(F)F
4.98		Cc1cc(C)c2sc(NNC(=O)c3ccc(S(=O)(=O)N4CCc5ccccc5C4)cc3)nc2c1
4.46		O=[N+]([O-])c1cccnc1N/N=C/c1ccccc1O
	> 35 µM (inactive)	COc1ccc(NC(=O)C2CCN(S(=O)(=O)c3ccc4c(c3)CC(C)N4C(C)=O)CC2)cc1OC (stereo not given)

pEC50	EC50	SMILES
	> 35 µM (inactive)	Cc1ccc2nc(SCC(=O)N3CCCCCC3)nc(=O)n2c1
	> 35 µM (inactive)	CCC(=O)n1nc(NCc2ccc(OC)c(OC)c2)nc1NCc1ccc(OC)c(OC)c1
5.21		COc1ccccc1OCC(=O)N/N=C/c1c(O)ccc2ccccc12
	> 35 µM (inactive)	COc1ccc(CN2CCNC(=O)C2CC(=O)NC2CCCC2)c(OC)c1 (stereo not given)
5.41		CCC(=O)NC(c1ccc(C)cc1)c1ccc2cccnc2c1O (stereo not given)
	> 35 µM (inactive)	COc1ccc(CCNC(=O)c2nnn(CC(=O)Nc3c(C)cc(C)cc3C)c2N)cc1OC
	> 35 µM (inactive)	CCCn1c(SCC(=O)N2CCc3ccccc3C2)nc2c1c(=O)n(C)c(=O)n2C
	> 35 µM (inactive)	Cc1ccc(C(=O)CSc2ccc(-c3ccncc3)nn2)cc1
	> 35 µM (inactive)	CC(C)=NOC(=O)c1c(C)noc1-c1snnc1C
5.17		CCCCC(=O)NC(c1ccccc1OC)c1ccc2cccnc2c1O (stereo not given)
	> 35 µM (inactive)	COc1ccc2nc(-c3cccc(N)c3)[nH]c2c1
5.40		Oc1c(N=Nc2ccccn2)ccc2ccccc12
	> 35 µM (inactive)	CC1CCN(Cc2nnnn2CCCC(=O)NCCc2cnn(C)c2)CC1
	> 35 µM (inactive)	CCOCCCNC(=S)Nc1cc(C)cc(C)c1
5.18		O=C(N/N=C/c1c(O)ccc2ccccc12)c1ccc(CO)nc1
	> 35 µM (inactive)	COc1ccc2nc(NC(=O)c3cccs3)sc2c1
	> 35 µM (inactive)	COC(=O)CC1C(=O)NCCN1C(=O)CSc1nnc(Nc2ccc(OC)cc2)s1 (stereo not given)
	> 35 µM (inactive)	CC(=O)Nc1ccc2nc(NC(=O)COc3ccccc3C)sc2c1
4.52		COc1cccc(/C=N/NC(=O)c2ccc(-c3ccccc3)cc2)c1O
	> 35 µM (inactive)	CCCc1[nH]nc2c1C(c1ccoc1)C(C#N)=C(N)O2 (stereo not given)
	> 35 µM (inactive)	CC(C)c1onc(C(=O)Nc2sc3c(c2C#N)CCC3)c1[N+](=O)[O-]
4.98		CCN(CCN(C)C)C(=O)C1CCN(S(=O)(=O)c2c(C)noc2/C=C/c2ccccc2F)CC1
	> 35 µM (inactive)	CCOC(=O)/C(C#N)=C/C=C1\C=Cc2ccccc2N1CC
	> 35 µM (inactive)	OCCCNc1c2ccccc2nc2ccccc12
	> 35 µM (inactive)	Cc1ccc(-c2cc(N)n(-c3ccc(F)cc3)n2)cc1

pEC50	EC50	SMILES
	> 35 µM (inactive)	COc1ccc(CSCC(=O)Nc2ccc(S(=O)(=O)N3CCCCCC3)cc2)cc1
	> 35 µM (inactive)	OCCC#Cc1ccc(CN2CCN(Cc3ccccc3)C(CCO)C2)cc1 (stereo not given)
	> 35 µM (inactive)	Cc1ccc(OCCNC(=O)CCc2nc3sc4c(c3c(=O)[nH]2)CCCC4)cc1
	> 35 µM (inactive)	COc1ccc(NC(=O)CCS(=O)(=O)c2ccc3c(c2)CCN3C(C)=O)cc1
	> 35 µM (inactive)	COc1ccc(NC(=O)c2cccs2)cn1
5.04		O=C(Nc1ncccc1O)c1ccc(S(=O)(=O)Nc2ccccc2)cc1
	> 35 µM (inactive)	COc1ccc(N2C(=O)[C@@H]3C(c4cccnc4)=NO[C@@H]3C2=O)cc1
	> 35 µM (inactive)	O=C(O)c1cccc(N2CCCC2=O)c1
	> 35 µM (inactive)	COC(=O)CNC(=O)CSc1nnc2cc(C)c3ccccc3n12
	> 35 µM (inactive)	CN(CC(=O)Nc1ccccc1Oc1ccccc1)Cc1ccccc1F
	> 35 µM (inactive)	Cc1ccc(S(=O)(=O)N2CCN(c3ccccn3)CC2)cc1
	> 35 µM (inactive)	Oc1c(C=C2N=c3ccccc3=N2)sc(=S)n1-c1ccccc1
	> 35 µM (inactive)	CCCCOC(=O)c1ccc(NC(=O)C(=O)NCc2cccnc2)cc1
4.52		COc1ccc(-c2csc(NNC3=NCCCCC3)n2)cc1
	> 35 µM (inactive)	CCN(CC(=O)Nc1ccc2c(c1)OCCO2)CC(=O)Nc1ccc2c(c1)OCO2
	> 35 µM (inactive)	COc1ccc(CCNC(=O)COC(=O)CCC(=O)c2ccc(F)cc2)cc1OC
	> 35 µM (inactive)	CCCCNc1nc(N)nc(-c2cc(Cl)ccc2O)n1
	> 35 µM (inactive)	O=C(CN1CCC(C(=O)c2ccc(Cl)cc2)CC1)Nc1ccc2c(c1)OCCO2
	> 35 µM (inactive)	COc1cccc(OCc2cc(C(=O)N3CCN(c4ccccc4OC)CC3)no2)c1
	> 35 µM (inactive)	O=C(CN1CCCCC1)N1CCCc2ccccc21
	> 35 µM (inactive)	c1ccc2c(NCCc3c[nH]c4ccccc34)c3ccccc3nc2c1
	> 35 µM (inactive)	Cc1ccc(NC(=O)N2CCC(NC(=O)c3cccc(C)c3)CC2)cc1
	> 35 µM (inactive)	CCCCCC(=O)NNC(=S)NC(=O)c1cccc([N+](=O)[O-])c1
5.05		Oc1ccc2ccccc2c1N=Nc1ccccn1
5.23		O=C(CCCCCCC(=O)Nc1ccccc1)NO
